According to ChEMBL document CHEMBL1158487, “Small molecule chloropyramine hydrochloride (C4) targets the binding site of focal adhesion kinase and vascular endothelial growth factor receptor 3 and suppresses breast cancer growth in vivo” (J Med Chem, 2009):

Test system: BT-474
Test: Antitumor activity against human BT474 cells xenografted in nude-foxn1nu mouse assessed as reduction in tumor growth at 3 mg/kg after 14 days relative to control
Type: functional
Parameters: scale not given: the % may be the effect or the level left

## COc1cccc2c1C(=O)c1c(O)c3c(c(O)c1C2=O)C[C@@](O)(C(=O)CO)C[C@@H]3O[C@H]1C[C@H](N)[C@H](O)[C@H](C)O1 [DOXORUBICIN]
  Activity: 60%
